“Also recorded” adds a separate entry of the source.
How the values were obtained:
[1] = In vitro activity of PEG-KLK1 conjugates (BAEE degradation, absorbance change); assay type: biochemical; settings: BAEE substrate, versus original unmodified protein
Source text: N-benzoyl-L arginine ethyl ester hydrochloride (BAEE, purchased from sigma Inc.) may be degraded by Kallikrein, and the activity of kininogenase may be determined according to the change in the absorbance before and after the enzymatic reaction, see Pharmacopoeia of People's Republic of China, pages 850-851, Section 2, 2010 version for a particular determination method. Samples to be detected were, respectively, SC-PEG5000-KLK1 (conjugate 1), Y-PALD-20K-KLK1 (conjugate 2), Y-PALD-30K-KLK1 (conjugate 3), and Y-PALD-40K-KLK1 (conjugate 4) from Preparation Example 1, and the original unmodified protein.
The recombinant expressed low-molecular weight human kallikrein (hK1K1) from Example 10 was modified with a Y-PALD-30K modifier, and after the modification, a mono-modified product (Y-PALD-30K-hK1K1) was prepared according to the method described in Example 1. […] According to the experimental method in Example 2, the activity of human kallikrein (hK1K1) before and after the modification was determined.
The recombinant human kallikrein expressed in CHO cells prepared in Example 12 was modified with a Y-PALD-30K modifier, and after the modification, a mono-modified product (Y-PALD-30K-rhK1K1) was prepared according to the method described in Example 1. […] According to the experimental method in Example 2, the activity of human kallikrein before and after the modification was determined.

[2] = Thermostability: activity after standing in a water bath at 65° C.; assay type: physicochemical; settings: for thermostability in comparison with the original protein: 65° C. water bath, 0-30 min
Protocol: In order to confirm whether the PEG modification can increase the stability of kallikrein, the activity of the conjugates 1 and 3 and the original protein after standing for a period of time in a water bath at 65° C. was detected respectively in this example. The method specifically included the following steps. The conjugates 1 and 3 and the unmodified kallikrein dissolved in a PBS buffer at a protein concentration of 1 mg/mL were stood in a water bath at 65° C., sampled at 0 min, 2.5 min, 5 min, 7.5 min, 10 min, 20 min, 25 min, and 30 min respectively, and stored in freezer at […] for later use. After sampling, the biological activity was detected by employing the method (i.e., the method described in appendix IX F in Pharmacopoeia of People's Republic of China, Section 3, 2005 version).

[3] = test system: cerebral ischemia reperfusion model of middle cerebral artery obstruction (MCAO); assay: Cerebral ischemia reperfusion model of middle cerebral artery obstruction (MCAO); assay type: in vivo; settings: SD rats, 3 μg/kg once via vena caudalis; for Cerebral infarction area (%) / Score of neurologic deficit symptom: 24 h after reperfusion; for Cerebral infarction area (%): TTC staining; for Score of neurologic deficit symptom: improved Bederson 5-point system
Source text: A cerebral ischemia reperfusion model of middle cerebral artery obstruction (MCAO) was established by thread embolizing the internal carotid artery of SD rats (purchased from Shanghai Sippr bk Laboratory Animal Co. LTD.) A positive control 1 group (urinary kallikrein, Guangdong Tianpu Biochemical Pharmaceutical Co., LTD.), a positive control 2 group (tPA, Shanghai Boehringer Ingelheim Pharmaceuticals Co., LTD), a model control group (PBS), a sham group, a kallikrein group (from Changzhou Qianhong Biochemical Pharmaceutical Co., LTD.), a conjugate 1 group, a conjugate 2 group, a conjugate 3 group, and a conjugate 4 group were arranged respectively. Administration by injection through vena caudalis was performed once at 3 μg/kg (calculated according to the protein amount) immediately after the cerebral ischemia reperfusion. Neurologic deficit symptoms were observed 24 h after the reperfusion, and the cerebral infarction area was determined. In the model group, an equal volume of PBS was injected through vena caudalis into the rat. In the sham group, only blood vessels were separated, no embolizing thread was inserted, and an equal volume of PBS was injected through vena caudalis into the rats. Neurologic deficit symptoms were evaluated employing an improved Bederson 5-point system method. Neurologic deficit symptoms of the rats after brain trauma were evaluated by a single-blind method, i.e., the animals were marked according to groups by designers of the experiment, and scores of the neurologic deficit symptoms were given by experimenters blind to the grouping situation. The cerebral infarction area was calculated employing the following method. Cerebrums of the SD rats were stained with TTC (2,3,5-triphenyltetrazolium chloride) and then the photographs were subjected to statistics using an image analysis software, and the percentage of cerebral infarction area was calculated according to the following formula: % cerebral infarction area=100×(total ischemic area/total area on the right side)

[4] = test system: db/db mice as animal models for diabetic nephropathy; assay: Diabetic nephropathy model in db/db mice; assay type: in vivo; settings: for 24-h urea nitrogen after administration, compared with the model group / 24-h urine creatinine after administration, compared with the model group / 24-h urine protein after administration, compared with the model group / 24-h urine volume after administration, compared with the model group: 2 μg/kg via vena caudalis, 2 months, original protein once a week, conjugate 3 once every 2 weeks
Protocol: db/db mice (purchased from Shanghai Slaccas Experimental Animal Co., LTD., grade SPF, 8-week aged, male, with a conformity certification No. of 2007000552656) were employed as animal models for diabetic nephropathy. A model group, a kallikrein (purchased from Changzhou Qianhong Biochemical Pharmaceutical Co., LTD.) original protein group and a conjugate 3 group were provided respectively. The administered dose was 2 μg/kg (calculated according to the protein amount), through vena caudalis, where the model group and the original protein group were dosed once a week, and the conjugate 3 group was dosed once every 2 weeks, for 2 continuous months before detection of urine volume, urine protein, urea nitrogen and urine creatinine. (Urine protein detection kits, urine creatinine detection kits, and urea nitrogen detection kits were all purchased from Nanjing Jiaticheng Bioengineering Co., LTD.)

[5] = test system: anti-kallikrein antibody level in serum; design: species or system mice; settings: mouse, in vivo, 1 mg/kg
Protocol: Relative immunogenicity of different PEG-KLK1 conjugates to mice was determined in this example, and compared with the original protein. The experiment was divided into a conjugate 2 group, a conjugate 3 group, a urinary kallikrein group and an original protein group. 1 mg/kg (calculated according to the protein amount) of the above protein was injected through vena caudalis into the mice at a frequency of twice a week, for 4 continuous weeks. Blood was taken from eye sockets 1 week after administration. The anti-kallikrein antibody level in serum was determined by […].

[6] = Pharmacokinetics by 125I isotope labelling tracer method; assay type: in vivo; settings: rats, 1.5 U/kg via vena caudalis; for T½β: 2-compartment model
Protocol: The in vivo blood drug concentrations of kallikrein before and after the PEG modification were studied employing a ^125I isotope labelling tracer method in this example. In order to reduce the absorption of the labelled drug by the thyroid gland of rats, 1 ml of a 1% KI (Sinopharm Group) solution was intraperitoneally injected about 8 hours before the experiment, to saturate the thyroid gland of the rats. The rats were randomly divided into 3 groups, i.e., a conjugate 3 group, a kallikrein group, and a urinary kallikrein group, 8 in each group, half male and half female (purchased from Experimental Animal Center of Zhejiang Province).
A particular operation method is as follows:
1. Hydroxy on the amino acid residue phenyl ring in a protein molecule is substituted with radioiodine, to obtain the above protein with ^125I having a radioactive tracing effect.
2. Numbering is performed on the rats using picric acid according to the numbering rule, and weighing is performed. After fixing with a rat fixer, administration is performed by injection through vena caudalis (1.5 U/kg). The rat is let go immediately after the dosage, and allowed to move around, drink water, and eat food freely.
3. 0.2 mL of blood is taken from eye sockets 1 min, 3 min, 10 min, 20 min, 40 min, 60 min, 2 h, 4 h, 8 h, 12 h, 24 h, 48 h, 72 h, 96 h, and 120 h respectively after the dosage, and EDTA is added therein for anticoagulation.
4. The rat plasma is subjected to centrifugal separation at 5000 rpm for 3 min, and determined for plasma radioactivity using a gamma counter (Anke Zhongjia, GC-911), for 1 min.
5. Plasma is recovered after radioactivity determination, and undegraded proteinogenous drugs are separated by HPLC (Shimadzu LC-20AT).

| Substance | activity retained, of the activity of the original protein [1] [%] | activity after standing for 20 min at 65° C. ([2]; 1 mg/mL in PBS, 65° C., 20 min) | thermostability in comparison with the original protein [2] | amelioration of cerebral infarction status of the model animals (in words) [3] | Cerebral infarction area (%) [3] [%] | Score of neurologic deficit symptom [3] | 24-h urea nitrogen after administration, compared with the model group [4] | 24-h urine creatinine after administration, compared with the model group [4] | 24-h urine protein after administration, compared with the model group [4] | 24-h urine volume after administration, compared with the model group [4] | efficacy compared with the original protein group ([4]; conjugate 3 once every 2 weeks versus original protein once a week) | antibody titers on mice compared with kallikrein from porcine pancreas and urinary kallikrein [5] | relative immunogenicity to mice compared with conjugate 2 [5] | AUC [6] [ng·h/mL] | CL [6] [mL/min/kg] | V [6] [L/kg] | T½β [6] [h] | activity after standing for 10 min at 65° C. ([2]; 1 mg/mL in PBS, 65° C., 10 min) |
| --- | --- | --- | --- | --- | --- | --- | --- | --- | --- | --- | --- | --- | --- | --- | --- | --- | --- | --- |
| Y-PALD-30K-KLK1 [Conjugate 3] | 90 | still has a certain activity | significantly increased | apparent protective effects; also recorded: better therapeutic effect | 17.16 ± 4.07 | 2.10 ± 0.23 | significantly reduced | significantly reduced | significantly reduced | significantly reduced | apparently superior | much lower | slightly lower | 113.62 | 0.33 | 0.64 | 20.03 |  |
| Y-PALD-20K-KLK1 [Conjugate 2] | 83 |  |  | apparent protective effects; also recorded: better therapeutic effect | 21.34 ± 1.70 | 2.27 ± 0.24 |  |  |  |  |  | much lower |  |  |  |  |  |  |
| Y-PALD-40K-KLK1 [Conjugate 4] | 86 |  |  | essentially did not reduce; also recorded: no apparent amelioration | 31.27 ± 5.08 | 2.65 ± 0.34 |  |  |  |  |  |  |  |  |  |  |  |  |
| Y-PALD-30K-rhK1K1 | 88 |  |  |  |  |  |  |  |  |  |  |  |  |  |  |  |  |  |
| Kallikrein |  |  |  | no apparent amelioration | 26.52 ± 3.67 | 2.41 ± 0.19 | significantly reduced | significantly reduced | significantly reduced | significantly reduced |  |  |  | 18.59 | 2.17 | 3.53 | 18.81 | substantially lost |
| SC-PEG5000-KLK1 [Conjugate 1, reference compound] | 81 |  | unobvious | only partially ameliorated; also recorded: slightly ameliorate | 27.67 ± 4.34 | 2.45 ± 0.27 |  |  |  |  |  |  |  |  |  |  |  |  |
| Positive control 1: urinary kallikrein sourced from human urine, Guangdong Tianpu Biochemical Pharmaceutical [reference compound] |  |  |  |  | 24.49 ± 3.96 | 2.47 ± 0.21 |  |  |  |  |  |  |  | 11.68 | 3.5 | 5.16 | 17.49 |  |
| Y-PALD-30K-hK1K1 | 85 |  |  |  |  |  |  |  |  |  |  |  |  |  |  |  |  |  |
